Assay results from patent publication US4206156A, “Hydroxyaminohydrocarbonphosphonic acids” (Fujisawa Pharmaceutical Company, Limited, priority 1976, dated 1980).
Structures can show the parent of a compound that is named as a salt.

Tests used:
[1] = test system: pathogenic microorganisms; conditions: in words; from work filed as U.S. application Ser. No. 819,551; cited from earlier work
[2] = test system: Bacillus substilis ATCC6633; assay: M.I.C., serial agar dilution, nutrient agar (inoculum 10^6 cells/ml); assay type: cell-based; conditions: ATCC6633, 20 h
Experimental: (§1) M.I.C. test was conducted by the usual serial agar dilution method, (inoculum:10^6 cells/ml.), using a nutrient agar which was incubated at 37° C. for 20 hours. M.I.C. value is expressed as the minimum concentration of the monoammonium salt of 3-(N-formyl-N-hydroxyamino)-propylphosphonic acid (mcg/ml.) which inhibits growth of microorganisms.

[3] = test system: Citrobacter freundii 1381-3; assay: as above; assay type: cell-based; conditions: 13813, 37° C., 20 hours
Experimental: as §1

[4] = test system: Enterobacter aerogenes 1402-10; assay: as above; assay type: cell-based; conditions: Klebsiella aerogenes, 140210, 37° C., 20 hours
Experimental: as §1

[5] = test system: Enterobacter cloacae 1401-4; assay: as above; assay type: cell-based; conditions: 14014, 37° C., 20 hours
Experimental: as §1

[6] = test system: Escherichia coli 1341-18(R); assay: as above; assay type: cell-based; conditions: 20 h
Experimental: as §1

[7] = test system: Escherichia coli NIHJ JC-2; assay: as above; assay type: cell-based; conditions: NIHJJC2, 37° C., 20 hours
Experimental: as §1

[8] = test system: Klebsiella pneumoniae NCTC 418; assay: as above; assay type: cell-based; conditions: NCTC418, 37° C., 20 hours
Experimental: as §1

[9] = test system: Proteus inconstans 1436-21; assay: as above; assay type: cell-based; conditions: Providencia alcalifaciens, 143621, 37° C., 20 hours
Experimental: as §1

[10] = test system: Proteus mirabilis 1432-75; assay: as above; assay type: cell-based; conditions: 143275, 37° C., 20 hours
Experimental: as §1

Proteus morganii 1433-2 [11] = assay: as above; assay type: cell-based; conditions: Morganella morganii, 14332, 37° C., 20 hours
Experimental: as §1

Proteus rettgeri 1434-3 [12] = assay: as above; assay type: cell-based; conditions: Providencia rettgeri, 14343, 37° C., 20 hours
Experimental: as §1

[13] = test system: Proteus vulgaris IAM 1025; assay: as above; assay type: cell-based; conditions: IAM1025, 37° C., 20 hours
Experimental: as §1

[14] = test system: Pseudomonas aeruginosa IAM 1095; assay: as above; assay type: cell-based; conditions: IAM1095, 37° C., 20 hours
Experimental: as §1

[15] = test system: Salmonella enteritidis 1891; assay: as above; assay type: cell-based; conditions: Salmonella enterica, 37° C., 20 hours
Experimental: as §1

[16] = test system: Salmonella paratyphi A-1015; assay: as above; assay type: cell-based; conditions: Salmonella enterica, 20 h
Experimental: as §1

Salmonella typhi 0-901 [17] = assay: as above; assay type: cell-based; conditions: Salmonella enterica, 20 h
Experimental: as §1

[18] = test system: Salmonella typhimurium 1406; assay: as above; assay type: cell-based; conditions: Salmonella enterica, 37° C., 20 hours
Experimental: as §1

Sarcina lutea PCI 1001 [19] = assay: as above; assay type: cell-based; conditions: Micrococcus luteus, PCI1001, 37° C., 20 hours
Experimental: as §1

[20] = test system: Serratia marcescens 1421-4; assay: as above; assay type: cell-based; conditions: 14214, 37° C., 20 hours
Experimental: as §1

Shigella flexneri IaEW8 [21] = assay: as above; assay type: cell-based; conditions: 37° C., 20 hours
Experimental: as §1

Shigella sonnei I EW33 [22] = assay: as above; assay type: cell-based; conditions: IEW33, 37° C., 20 hours
Experimental: as §1

[23] = test system: Staphylococcus aureus FDA209P JC-1; assay: as above; assay type: cell-based; conditions: 37° C., 20 hours
Experimental: as §1

[24] = test system: Pseudomonas aeruginosa 1101-76; assay: Protecting effect in experimental mice infections; assay type: in vivo, mice (ICR-strain); conditions: Pseudomonas aeruginosa 1101-76, 1.2 × 10^6 viable cells per mouse, survival 1 week
Experimental: Male mice of ICR-strain, aged 4 weeks and weighing 24±1 g., were used. Each experimental group consists of 8 animals.
A prescribed amount of pathogenic bacteria, suspended in 5% aqueous Mucin solution (0.5 ml.), was intraperitoneally injected into the test animals.
Subsequently, the above test compound in water (0.25 ml.) was administered to each of the test animals, subcutaneously three times at 0, 1, 3 hours or orally once at 1 hour after the infection of pathogenic bacteria, respectively.

[25] = test system: Bacillus subtilis ATCC6633; assay: M.I.C., serial agar dilution, nutrient agar (inoculum 10^5 cells/ml); assay type: cell-based; conditions: 37° C., 18 hours
Experimental: (§2) M.I.C. test was conducted by an usual serial agar dilution method, (inoculum: 10^5 cells/ml.), using a nutrient agar which was incubated at 37° C. for 18 hours. M.I.C. value is expressed as the minimum concentration of the monopotassium salt of 3-(N-formyl-N-hydroxyamino)-trans-1-propenylphosphonic acid (mcg/ml.) which inhibits growth of microorganisms.

[26] = test system: Citrobacter freundii 1381-3; assay: as above; assay type: cell-based; conditions: 13813, 37° C., 18 hours
Experimental: as §2

[27] = test system: Enterobacter aerogenes 1402-10; assay: as above; assay type: cell-based; conditions: Klebsiella aerogenes, 140210, 37° C., 18 hours
Experimental: as §2

[28] = test system: Enterobacter cloacae 1401-4; assay: as above; assay type: cell-based; conditions: 14014, 37° C., 18 hours
Experimental: as §2

[29] = test system: Escherichia coli 1341-18(R^+); assay: as above; assay type: cell-based; conditions: 37° C., 18 hours
Experimental: as §2

[30] = test system: Klebsiella pneumoniae NCTC 418; assay: as above; assay type: cell-based; conditions: NCTC418, 37° C., 18 hours
Experimental: as §2

[31] = test system: Proteus inconstans 1436-21; assay: as above; assay type: cell-based; conditions: Providencia alcalifaciens, 143621, 37° C., 18 hours
Experimental: as §2

[32] = test system: Proteus mirabilis 1432-75; assay: as above; assay type: cell-based; conditions: 143275, 37° C., 18 hours
Experimental: as §2

Proteus morganii 1433-2 [33] = assay: as above; assay type: cell-based; conditions: Morganella morganii, 14332, 37° C., 18 hours
Experimental: as §2

Proteus rettgeri 1434-3 [34] = assay: as above; assay type: cell-based; conditions: Providencia rettgeri, 14343, 37° C., 18 hours
Experimental: as §2

[35] = test system: Proteus vulgaris IAM 1025; assay: as above; assay type: cell-based; conditions: IAM1025, 37° C., 18 hours
Experimental: as §2

[36] = test system: Pseudomonas aeruginosa IAM 1095; assay: as above; assay type: cell-based; conditions: IAM1095, 37° C., 18 hours
Experimental: as §2

[37] = test system: Salmonella enteritidis 1891; assay: as above; assay type: cell-based; conditions: Salmonella enterica, 37° C., 18 hours
Experimental: as §2

[38] = test system: Salmonella paratyphi A-1015; assay: as above; assay type: cell-based; conditions: Salmonella enterica, 37° C., 18 hours
Experimental: as §2

Salmonella typhi 0-901 [39] = assay: as above; assay type: cell-based; conditions: Salmonella enterica, 37° C., 18 hours
Experimental: as §2

[40] = test system: Salmonella typhimurium 1406; assay: as above; assay type: cell-based; conditions: Salmonella enterica, 37° C., 18 hours
Experimental: as §2

Sarcina lutea PCI 1001 [41] = assay: as above; assay type: cell-based; conditions: Micrococcus luteus, PCI1001, 37° C., 18 hours
Experimental: as §2

[42] = test system: Serratia marcescens 1421-4; assay: as above; assay type: cell-based; conditions: 14214, 37° C., 18 hours
Experimental: as §2

Shigella flexneri IaEW8 [43] = assay: as above; assay type: cell-based; conditions: 37° C., 18 hours
Experimental: as §2

Shigella sonnei I EW33 [44] = assay: as above; assay type: cell-based; conditions: IEW33, 37° C., 18 hours
Experimental: as §2

[45] = test system: Staphylococcus aureus FDA209PJC-1; assay: as above; assay type: cell-based; conditions: FDA209PJC1, 37° C., 18 hours
Experimental: as §2

Acute toxicity, mouse = assay: Acute toxicity, mouse; parameters: species or system Mouse (ICR-strain); conditions: in vivo, observed one week
Source text: Male and Female mice of ICR-strain, aged 6 weeks were used.
(§3) Litchfield-Wilcoxon method

Acute toxicity, rat = conditions: in vivo, male, observed one week
Source text: as §3

## CC(=O)N(O)CCCP(=O)(O)O [FR-900098, 3-(N-acetyl-N-hydroxyamino)propylphosphonic acid]
[1]
  antimicrobial activities: antimicrobial activities against various pathogenic microorganisms

## O=CN(O)CCCP(=O)(O)O [monoammonium salt of 3-(N-formyl-N-hydroxyamino)propylphosphonic acid]
[2]
  MIC: 6.25 µg/mL
[3]
  MIC: 3.13 µg/mL
[4]
  MIC: 6.25 µg/mL
[5]
  MIC: 6.25 µg/mL
[6]
  MIC: 12.5 µg/mL
[7]
  MIC: 200 µg/mL
[8]
  MIC: 100 µg/mL
[9]
  MIC: 3.13 µg/mL
[10]
  MIC: 6.25 µg/mL
Proteus morganii 1433-2 [11]
  MIC: > 800 µg/mL
Proteus rettgeri 1434-3 [12]
  MIC: 1.56 µg/mL
[13]
  MIC: 3.13 µg/mL
[14]
  MIC: 0.78 µg/mL
[15]
  MIC: 0.39 µg/mL
[16]
  MIC: 12.5 µg/mL
Salmonella typhi 0-901 [17]
  MIC: 0.39 µg/mL
[18]
  MIC: 25 µg/mL
Sarcina lutea PCI 1001 [19]
  MIC: ≤ 0.1 µg/mL
[20]
  MIC: 100 µg/mL
Shigella flexneri IaEW8 [21]
  MIC: 12.5 µg/mL
Shigella sonnei I EW33 [22]
  MIC: 100 µg/mL
[23]
  MIC: > 800 µg/mL
[24]; orally once at 1 hour
  ED50, oral administration: 0.280 mg/mouse
[24]; s.c. three times at 0, 1, 3 hours
  ED50, subcutaneous administration: 0.228 mg/mouse

## O=CN(O)C/C=C/P(=O)(O)O [monopotassium salt of 3-(N-formyl-N-hydroxyamino)-trans-1-propenylphosphonic acid]
[25]
  MIC: 6.25 µg/mL
[26]
  MIC: 12.5 µg/mL
[27]
  MIC: 50 µg/mL
[28]
  MIC: 12.5 µg/mL
[29]
  MIC: 25 µg/mL
[30]
  MIC: 100 µg/mL
[31]
  MIC: 25 µg/mL
[32]
  MIC: 0.39 µg/mL
Proteus morganii 1433-2 [33]
  MIC: > 100 µg/mL
Proteus rettgeri 1434-3 [34]
  MIC: 6.25 µg/mL
[35]
  MIC: 1.56 µg/mL
[36]
  MIC: 1.56 µg/mL
[37]
  MIC: 6.25 µg/mL
[38]
  MIC: 25 µg/mL
Salmonella typhi 0-901 [39]
  MIC: 0.78 µg/mL
[40]
  MIC: 12.5 µg/mL
Sarcina lutea PCI 1001 [41]
  MIC: 0.2 µg/mL
[42]
  MIC: > 100 µg/mL
Shigella flexneri IaEW8 [43]
  MIC: 50 µg/mL
Shigella sonnei I EW33 [44]
  MIC: 25 µg/mL
[45]
  MIC: > 100 µg/mL

## O=CN(O)CCCP(=O)(O)O [monosodium salt of 3-(N-formyl-N-hydroxyamino)propylphosphonic acid]
Acute toxicity, mouse; po, female, oral, read-out: LD50, oral administration
  LD50 at 168 h: > 11000 mg/kg
Acute toxicity, mouse; po, male, oral, read-out: LD50, oral administration
  LD50 at 168 h: 11000 mg/kg
Acute toxicity, mouse; sc, female, subcutaneous, read-out: LD50, subcutaneous administration
  LD50 at 168 h: 8270 mg/kg
Acute toxicity, mouse; sc, male, subcutaneous, read-out: LD50, subcutaneous administration
  LD50 at 168 h: 8050 mg/kg
Acute toxicity, rat; oral, read-out: LD50, oral administration
  LD50 at 168 h: > 11000 mg/kg
Acute toxicity, rat; sc, subcutaneous, read-out: LD50, subcutaneous administration
  LD50 at 168 h: 8000 mg/kg
